Laboratory results published in patent US12678446B2 (PFIZER INC., priority 2020, dated 2026).
pEC50: −log10 of the molar value.

Experiments:
cell toxicity CC50 = format: cell-based; settings: human; Hep-G2 cells; mean of at least two experiments; read-out: Cell Cytotoxicity CC50
[1] = tested on: RSV (RSV A2 ECACC, 0709161v); assay: RSV plaque reduction assay; format: cell-based, respiratory syncytial virus; settings: human respiratory syncytial virus, HepG2, read-out: RSV A2 Plaque EC50, RSV A2 in Hep-G2 cells; mean of at least two experiments unless noted (n = 1)
Protocol: Compounds w ere subjected to RSV plaque reduction assays according to the following protocol.
Hep-G2 cells (ECACC, 85011430) were passaged in flasks and seeded in 24-well plates in DMEM containing antibiotics and supplemented with 10% FBS. During inoculation and subsequent incubation, cells were cultured in DMEM containing 2% FBS. 100 plaque forming unit/well of RSV (RSV A2 ECACC, 0709161v) was mixed with eight serial dilutions of compound. Subsequently, 100 μL of the virus/compound mixtures was added to confluent Hep-G2 cell monolayers. The cells and virus/compound mixtures were incubated at 37° C. in a humidified 5% CO2 incubator for 2 h prior to removal of the inoculum and addition of 1 mL of overlay (DMEM containing 2% FBS and 0.8% CMC) containing compound dilutions. The cells and were incubated at 37° C. in a humidified 5% CO2 incubator for 2 days.
Cells were washed with PBS before adding 75/25% v/v EtOH MeOH, for 3 min. Fixative was removed and plates were washed with PBS. A pre-titrated amount of the primary antibody was added in 200 μL PBS/2% milk powder, and plates incubated for 90 min at 37° C. The plates were washed 3 times with PBS/0.05% Tween20 before addition of rabbit anti-goat horse radish peroxidase in 200 μL PBS/2% milk powder, and incubated for 1 h at 37° C. Following three wash steps with PBS/0.05% Tween20, 200 μL ready-to-use TrueBlue was added and plates were incubated at rt for 10-15 min before washing with water. After removal of water, plates were air-dried in the dark.
Plates were scanned and analysed using the Immunospot S6 Macro analyser, which is equipped with BioSpot analysis software for counting immunostained plaques (virospots). Plaque counts were used to calculate % infection relative to the mean of the plaque count in the virus control wells for RSV. […] Unless otherwise noted, plaque EC50 and cell toxicity CC50 values are a mean of at least two experiments and figures are rounded to whole units.

SMILES	CC50 (cell toxicity CC50) [nM]	pEC50 [1]
CCS(=O)(=O)c1ccc(-c2nn3c(c2C(=O)N[C@H]2N=C(c4ccccc4)c4cccc(F)c4NC2=O)O[C@H](C)CC3)c(F)c1 [Example 197, (5R)-2-(4-Ethylsulfonyl-2-fluorophenyl)-N-[(3S)-9-fluoro-2-oxo-5-phenyl-1,3-dihydro-1,4-benzodiazepin-3-yl]-5-methyl-6,7-dihydro-5H-pyrazolo[5,1-b][1,3]oxazine-3-carboxamide]	> 25000	7.01
C[C@H]1CCn2nc(-c3cnn(C4CCOCC4)c3)c(C(=O)N[C@H]3N=C(c4ccccc4)c4cccc(F)c4NC3=O)c2O1 [Example 156, (5S)-N-[(3S)-9-fluoro-2-oxo-5-phenyl-1,3-dihydro-1,4-benzodiazepin-3-yl]-5-methyl-2-[1-(oxan-4-yl)pyrazol-4-yl]-6,7-dihydro-5H-pyrazolo[5,1-b][1,3]oxazine-3-carboxamide]	> 25000	7.41
C[C@@H]1CCn2nc(Nc3ccccc3)c(C(=O)N[C@H]3N=C(c4ccccc4)c4cccc(F)c4NC3=O)c2O1 [Example 95, (5R)-2-Anilino-5-methyl-N-[(3S)-9-fluoro-2-oxo-5-phenyl-1,3-dihydro-1,4-benzodiazepin-3-yl]-6,7-dihydro-5H-pyrazolo[5,1-b][1,3]oxazine-3-carboxamide]	> 25000	6.45
CCc1ccc(-c2nn3c(c2C(=O)N[C@H]2N=C(c4ccccc4)c4cccc(F)c4NC2=O)O[C@H](C)CC3)c(C)n1 [Example 66, (5R)-2-(6-Ethyl-2-methyl-3-pyridyl)-N-[(3S)-9-fluoro-2-oxo-5-phenyl-1,3-dihydro-1,4-benzodiazepin-3-yl]-5-methyl-6,7-dihydro-5H-pyrazolo[5,1-b][1,3]oxazine-3-carboxamide]	> 25000	7.22
O=C(N[C@H]1N=C(c2ccccc2)c2cccc(F)c2NC1=O)c1c(C2CC2)nn2c1OCCC2 [Example 45, 2-Cyclopropyl-N-[(3S)-9-fluoro-2-oxo-5-phenyl-1,3-dihydro-1,4-benzodiazepin-3-yl]-6,7-dihydro-5H-pyrazolo[5,1-b][1,3]oxazine-3-carboxamide]	> 25000	6.52
C[C@@H]1CCn2nc(-c3ccc(CN(C)C)cc3F)c(C(=O)N[C@H]3N=C(c4ccccc4)c4cccc(F)c4NC3=O)c2O1 [Example 170, (5R)-2-[4-[(Dimethylamino)methyl]-2-fluorophenyl]-N-[(3S)-9-fluoro-2-oxo-5-phenyl-1,3-dihydro-1,4-benzodiazepin-3-yl]-5-methyl-6,7-dihydro-5H-pyrazolo[5,1-b][1,3]oxazine-3-carboxamide]	> 25000	7.22
C[C@@H]1CCn2nc(-c3ccc(S(C)(=O)=O)cc3F)c(C(=O)N[C@H]3N=C(c4ccccc4)c4ccccc4NC3=O)c2O1 [Example 141, (5R)-2-(2-Fluoro-4-methylsulfonylphenyl)-5-methyl-N-[(3S)-2-oxo-5-phenyl-1,3-dihydro-1,4-benzodiazepin-3-yl]-6,7-dihydro-5H-pyrazolo[5,1-b][1,3]oxazine-3-carboxamide]	> 25000	7.70
CCc1ccc(-c2nn3c(c2C(=O)N[C@H]2N=C(c4ccccc4)c4ccccc4NC2=O)O[C@H](C)CC3)c(C)n1 [Example 65, (5R)-2-(6-Ethyl-2-methyl-3-pyridyl)-5-methyl-N-[(3S)-2-oxo-5-phenyl-1,3-dihydro-1,4-benzodiazepin-3-yl]-6,7-dihydro-5H-pyrazolo[5,1-b][1,3]oxazine-3-carboxamide]	> 25000	7.08
Cc1cc(NC(C)C)ncc1-c1nn2c(c1C(=O)N[C@H]1N=C(c3ccccc3)c3cccc(F)c3NC1=O)O[C@H](C)CC2 [Example 92, (5R)-5-Methyl-2-[4-methyl-6-(propan-2-ylamino)pyridin-3-yl]-N-[(3S)-9-fluoro-2-oxo-5-phenyl-1,3-dihydro-1,4-benzodiazepin-3-yl]-6,7-dihydro-5H-pyrazolo[5,1-b][1,3]oxazine-3-carboxamide]	> 25000	6.88
C[C@H]1CCn2nc(-c3ccncc3F)c(C(=O)N[C@H]3N=C(c4ccccc4)c4cccc(F)c4NC3=O)c2O1 [Example 76, (5S)-N-[(3S)-9-fluoro-2-oxo-5-phenyl-1,3-dihydro-1,4-benzodiazepin-3-yl]-2-(3-fluoropyridin-4-yl)-5-methyl-6,7-dihydro-5H-pyrazolo[5,1-b][1,3]oxazine-3-carboxamide]	> 25000	7.03
CC1(C)COc2c(C(=O)N[C@H]3N=C(c4ccccc4)c4ccccc4NC3=O)c(-c3ccccc3F)nn2C1 [Example 40, 2-(2-Fluorophenyl)-6,6-dimethyl-N-[(3S)-2-oxo-5-phenyl-1,3-dihydro-1,4-benzodiazepin-3-yl]-5,7-dihydropyrazolo[5,1-b][1,3]oxazine-3-carboxamide]	> 25000	7.24
CCn1cc(-c2nn3c(c2C(=O)N[C@H]2N=C(c4ccccc4)c4cccc(F)c4NC2=O)O[C@@H](C)CC3)cn1 [Example 158, (5S)-2-(1-Ethylpyrazol-4-yl)-N-[(3S)-9-fluoro-2-oxo-5-phenyl-1,3-dihydro-1,4-benzodiazepin-3-yl]-5-methyl-6,7-dihydro-5H-pyrazolo[5,1-b][1,3]oxazine-3-carboxamide]	> 25000	7.32
O=C(N[C@H]1N=C(c2ccccc2)c2cccc(F)c2NC1=O)c1c(-c2ccccc2F)nn2c1OCC(Cn1cccn1)C2 (stereo partly drawn) [Example 124, N-[(3S)-9-fluoro-2-oxo-5-phenyl-1,3-dihydro-1,4-benzodiazepin-3-yl]-2-(2-fluorophenyl)-6-(pyrazol-1-ylmethyl)-6,7-dihydro-5H-pyrazolo[5,1-b][1,3]oxazine-3-carboxamide]	> 25000	7.12
C[C@@H]1CCn2nc(C3CCN(S(C)(=O)=O)CC3)c(C(=O)N[C@H]3N=C(c4ccccc4)c4cccc(F)c4NC3=O)c2O1 [Example 161, (5R)-N-[(3S)-9-fluoro-2-oxo-5-phenyl-1,3-dihydro-1,4-benzodiazepin-3-yl]-5-methyl-2-(1-methylsulfonylpiperi-din-4-yl)-6,7-dihydro-5H-pyrazolo[5,1-b][1,3]oxazine-3-carboxamide]	> 25000	7.27
CC(C)Nc1ccc(-c2nn3c(c2C(=O)N[C@H]2N=C(c4ccccc4)c4cccc(F)c4NC2=O)OCCC3)cn1 [Example 19, N-[(3S)-9-fluoro-2-oxo-5-phenyl-1,3-dihydro-1,4-benzodiazepin-3-yl]-2-[6-(propan-2-ylamino)pyridin-3-yl]-6,7-dihydro-5H-pyrazolo[5,1-b][1,3]oxazine-3-carboxamide]	> 25000	7.51
C[C@@H]1CCn2nc(-c3cnn(C4CC4)c3)c(C(=O)N[C@H]3N=C(c4ccccc4)c4ccccc4NC3=O)c2O1 [Example 125, (5R)-2-(1-Cyclopropylpyrazol-4-yl)-5-methyl-N-[(3S)-2-oxo-5-phenyl-1,3-dihydro-1,4-benzodiazepin-3-yl]-6,7-dihydro-5H-pyrazolo[5,1-b][1,3]oxazine-3-carboxamide]	> 25000	7.15
C[C@@H]1CCn2nc(-c3ccccc3)c(C(=O)N[C@H]3N=C(c4ccccc4)c4cccc(F)c4NC3=O)c2O1 [Example 81, (5R)-5-Methyl-2-phenyl-N-[(3S)-9-fluoro-2-oxo-5-phenyl-1,3-dihydro-1,4-benzodiazepin-3-yl]-6,7-dihydro-5H-pyrazolo[5,1-b][1,3]oxazine-3-carboxamide]	> 25000	7.08
O=C(N[C@H]1N=C(c2ccccc2)c2cccc(F)c2NC1=O)c1c(-c2c(F)cccc2F)nn2c1OC(CO)CC2 (single isomer, unassigned) [Example 189-1, (5R*)-2-(2,6-Difluorophenyl)-N-[(3S)-9-fluoro-2-oxo-5-phenyl-1,3-dihydro-1,4-benzodiazepin-3-yl]-5-(hydroxymethyl)-6,7-dihydro-5H-pyrazolo[5,1-b][1,3]oxazine-3-carboxamide]	> 25000	7.39
CC1CCn2nc(-c3ccc(N4C[C@@H]5C[C@H]4CO5)nc3)c(C(=O)NC3N=C(c4ccccc4)c4cccc(F)c4NC3=O)c2O1 (stereo in doubt) [Example 87, (5S)-5-Methyl-N-[(3R)-9-fluoro-2-oxo-5-phenyl-1,3-dihydro-1,4-benzodiazepin-3-yl]-2-[6-[(1S,4S)-2-oxa-5-azabicyclo[2.2.1]heptan-5-yl]pyridin-3-yl]-6,7-dihydro-5H-pyrazolo[5,1-b][1,3]oxazine-3-carboxamide]	> 25000	6.75
CCn1cc(-c2nn3c(c2C(=O)N[C@H]2N=C(c4ccccc4)c4cccc(F)c4NC2=O)OCCC3)cn1 [Example 99, 2-(1-Ethylpyrazol-4-yl)-N-[(3S)-9-fluoro-2-oxo-5-phenyl-1,3-dihydro-1,4-benzodiazepin-3-yl]-6,7-dihydro-5H-pyrazolo[5,1-b][1,3]oxazine-3-carboxamide]	> 25000	7.15
